Results on ten molecules are retold here after paper PMC7321403, “Synthesis and In Vitro Cytotoxicity and Antibacterial Activity of Novel 1,2,3-Triazol-5-yl-Phosphonates” (Molecules, 2020).

The test system of data set [1] is HL-60 cells (human promyelocytic leukemia).
Method: (§4) Cells were purchased from the American Type Culture Collection (ATCC, Manassas, VA, USA). Human lung adenocarcinoma A549 cells were maintained in Dulbecco's Modified Eagle Medium (DMEM), while mouse fibroblast NIH/3T3 and human promyelocytic leukemia HL-60 cells were maintained in Roswell Park Memorial Institute 1640 medium (RPMI-1640) containing 10% FCS. Media were supplemented with 2 mM GlutaMAX, 100 U/mL penicillin, and 100 µg/mL streptomycin (Life Technologies, Carlsbad, California, USA). Cell cultures were maintained at 37 °C in a humidified incubator in an atmosphere of 5% CO2 (Sanyo, Japan).
(§5) Cytotoxicity of the synthesized molecules was determined on A549, NIH/3T3 and HL-60 cells using the fluorescent Resazurin assay as described previously [46].
(§6) Briefly, cells (A549 and NIH/3T3: 6000, HL-60: 120.000 cells/well) were seeded into 96-well plates (Corning Life Sciences) in media and incubated overnight. Test compounds were dissolved in three-fold amounts of dimethyl sulfoxide (DMSO). Cells were treated with an increasing concentration of test compounds (1–30 µM). […] Cell viability was determined after 72 h incubation. Resazurin reagent (Sigma-Aldrich) was added at a final concentration of 25 µg/mL. After a 2 h incubation at 37 °C in 5% CO2, fluorescence (530 nm excitation/580 nm emission) was recorded on a multimode microplate reader (Cytofluor4000, PerSeptive Biosytems). Viability was calculated with relation to untreated control cells and blank wells containing media without cells. […] A Student’s t test was performed for individual test compound concentrations with relation to untreated control cell viability values.
For data set [2] the test system is unchanged. Briefly: In vitro cytotoxicity, fluorescent Resazurin assay. Background: Resazurin is reduced to fluorescent resorufin, in cell work by metabolically active cells.
Method: as §4, §5, §6
Another data set relates to B. subtilis-GFP. In words: Antibacterial activity on GFP producing Gram-positive bacteria (fluorimetry). The data set is classed as cell-based, Bacillus subtilis. The conditions noted are these: GFP fluorescence, 1–30 µM tested, mean ± SD. How it is done: (§1) Finally, the biological activity of the synthesized 1,2,3-triazol-5-yl-phosphonates (8, 11–26) was investigated. On the one hand, the antibacterial activity of the compounds was tested on GFP producing Gram-positive (Bacillus subtilis) and Gram-negative (Escherichia coli) bacterial cells. The GFP producing bacteria are an effective tool for screening for antibacterial activity since GFP signal measured via fluorimetry is proportional to the number of bacterial cells. Active compounds would kill bacterial cells, which results in the decrease in GFP fluorescence signal, therefore it is suitable for evaluating the antimicrobial effect of different agents. On the other hand, in vitro cytotoxicity assessments were performed on three different cell lines, such as human lung adenocarcinoma (A549), mouse fibroblast (NIH/3T3) as healthy cell line and human promyelocytic leukemia (HL-60). Table 3 contains the determined IC50 values in antimicrobial and cytotoxicity assays. According to the results, only modest antibacterial activity was detected against the more sensitive Bacillus subtilis strain.
(§2) All reagents were purchased from Sigma-Aldrich (Hungary, Budapest). E. coli-GFP and B. subtilis-GFP bacteria were grown in Lysogeny Broth (Luria-Bertani broth, LB, 10 g tryptone, 5 g yeast extract, 10 g/L NaCl, pH 7.0) medium overnight (ON) at 37 °C in an incubator with continuous shaking. The ON bacterial culture was diluted (E. coli-GFP: 1:10000, B. subtilis-GFP: 1:1000) in LB medium containing 10 µg/mL ampicillin. Two hundred microliters of diluted E. coli suspension per well were transferred to 96-well plates and different agents were added in the appropriate concentration, then incubated in a shaker (600 rpm) for 3 h at 37 °C. Test compounds were dissolved in 3-fold amounts of dimethyl sulfoxide (DMSO). […] For induction of the GFP expression IPTG (0.1 mM final concentration) was added to each well and incubated for 3 h at 37 °C.
(§3) The following incubation samples were centrifuged at 2750 rpm at room temperature (RT) for 5 min and washed twice with 200 µL PBS, with a centrifugation step between the two washes. After a third centrifugation step, the bacterial cells were suspended in 100 µL PBS. The number of bacteria was estimated according to the fluorimetric measurements. The fluorescence of the bacterial cells was measured by the Victor™ 1420 Multilabel Counter (Perkin Elmer, Waltham, MA, USA) at 485/535 nm for 1 sec per well controlled by Wallac 1420 Manager software. Each treatment was repeated in at least 2 wells per plate during the experiments. Percentage fluorescence intensity based on the quantity of E. coli-GFP cells was calculated using untreated control values as 100%. Error was represented by standard deviation (SD).

In a further data set the test system is E. coli-GFP. Briefly: Antibacterial activity on GFP producing Gram-negative bacteria (fluorimetry). Conditions: GFP fluorescence, 1–30 µM tested, mean ± SD. The data set is classed as cell-based, Escherichia coli. As to the method:
as §1, §2, §3

Data set [3] can be described thus: in vitro. The conditions noted are these: human.
Method: as §4, §5, §6
Data set [4] in a line: in vitro. Conditions: mouse.
Method: as §4, §5, §6
A short description of data set [5]: in vitro. The conditions noted are these: human, In Vitro Cytotoxicity (IC50, µM) HL-60, 72 h incubation, 1–30 µM tested, mean ± SD.
Method: as §4, §5, §6
Data set [6] in a line: In vitro cytotoxicity, fluorescent Resazurin assay. Conditions: human, HL-60 cells (human promyelocytic leukemia), In Vitro Cytotoxicity (IC50, µM) HL-60, 72 h incubation, 1–30 µM tested, mean ± SD.
Method: as §4, §5, §6
For data set [7], the system named is A549 cells (human lung adenocarcinoma).
Method: as §4, §5, §6
Data set [8] relates to NIH/3T3 cells (mouse fibroblast).
Method: as §4, §5, §6
[9] abbreviates: read-out: In Vitro Cytotoxicity (IC50, µM) HL-60, 72 h incubation, 1–30 µM tested, mean ± SD.
Where [10] appears, read: A549 cells (human lung adenocarcinoma).
The mark [11] stands for this setting: NIH/3T3 cells (mouse fibroblast).

Where two headings read alike, the source gives them in different places.

As usually defined, the IC50 is the midpoint of a concentration-inhibition curve. Take `CC(C)C[C@H](NC(=O)[C@H](Cc1ccccc1)NC(=O)c1cnccn1)B(O)O` [Bortezomib, reference compound]: in data set [1], the “In Vitro Cytotoxicity (IC50, µM) HL-60” value is 7.42 × 10^−3 2.60 × 10^−3 µM. The IC50 in [2] (Homo sapiens, HL-60, 72 h, read-out: IC50 for HL60 (positive control), 72 h incubation, value in nM) was 7.42 ± 2.6 nM.
As to `COP(=O)(OC)c1c(-c2ccccc2)nnn1Cc1ccccc1` [Compound 11, Dimethyl (1-benzyl-4-phenyl-1,2,3-triazol-5-yl)phosphonate], the IC50 with B. subtilis-GFP (Bacillus subtilis) and in the data set with E. coli-GFP (Escherichia coli) was more than 30 µM throughout. Moreover, the half-inhibitory concentration (IC50) at 72 h in “in vitro [3]”, in “in vitro [4]” and in the data set “in vitro [5]” was more than 30 µM in each case.
Regarding `CCOP(=O)(OCC)c1c(-c2ccccc2)nnn1Cc1ccccc1` [Compound 12, Diethyl (1-benzyl-4-phenyl-1,2,3-triazol-5-yl)phosphonate], the IC50 with B. subtilis-GFP (Bacillus subtilis) and with E. coli-GFP (Escherichia coli) was more than 30 µM in each case. For the same molecule, the IC50 at 72 h in “in vitro [3]”, in the data set “in vitro [4]” and in the data set “in vitro [5]” was more than 30 µM in each case.
In the case of `COP(=O)(OC)c1c(-c2ccccc2)nnn1Cc1ccc(C)cc1` [Compound 16, Dimethyl [1-(4-methylbenzyl)-4-phenyl-1,2,3-triazol-5-yl]phosphonate], the values for the IC50 (in the data set with B. subtilis-GFP (Bacillus subtilis); with E. coli-GFP (Escherichia coli); in data set [2] (setting [9])) were more than 30 µM, more than 30 µM and 11000 ± 1200 nM, respectively. Further, the values for the IC50 at 72 h in “in vitro [3]”, in “in vitro [4]” and in “in vitro [5]” were more than 30 µM, 19.8 ± 1.2 µM and approximately 10 µM, respectively.
On to `CCOP(=O)(OCC)c1c(-c2ccccc2)nnn1Cc1ccc(C)cc1` [Compound 17, Diethyl [1-(4-methylbenzyl)-4-phenyl-1,2,3-triazol-5-yl]phosphonate], for which the IC50 in the data set on B. subtilis-GFP (Bacillus subtilis) and with E. coli-GFP (Escherichia coli) was more than 30 µM throughout. In addition, the IC50 at 72 h in the data set “in vitro [3]”, in “in vitro [4]” and in “in vitro [5]” was more than 30 µM throughout.
In the case of `CCCCOP(=O)(OCCCC)c1c(-c2ccccc2)nnn1Cc1ccc(C(F)(F)F)cc1` [Compound 22, Dibutyl [1-(4-trifluoromethyl)-4-phenyl-1,2,3-triazol-5-yl]phosphonate], the figures for the IC50 (with B. subtilis-GFP (Bacillus subtilis); in the data set on E. coli-GFP (Escherichia coli); in data set [2] (setting [9])) were more than 30 µM, more than 30 µM and 9700 ± 1100 nM, respectively. Besides, the half-maximal inhibitory concentration (IC50) at 72 h in the data set “in vitro [3]” (setting [10]) was more than 30 µM; in “in vitro [4]” (setting [11]), 23.1 ± 1.2 µM; in data set [6], approximately 10 µM.
For `CCCCCCCCn1nnc(-c2ccccc2)c1P(=O)(OC)OC` [Compound 23, Dimethyl (1-octyl-4-phenyl-1,2,3-triazol-5-yl)phosphonate], the concentration for half-maximal inhibition (IC50) in the data set on B. subtilis-GFP (Bacillus subtilis) and in the data set on E. coli-GFP (Escherichia coli) was more than 30 µM throughout. Further, the IC50 at 72 h in the data set “in vitro [3]”, in the data set “in vitro [4]” and in the data set “in vitro [5]” was more than 30 µM each time.
As for `CCCCCCCCn1nnc(-c2ccccc2)c1P(=O)(OCC)OCC` [Compound 24, Diethyl (1-octyl-4-phenyl-1,2,3-triazol-5-yl)phosphonate], the concentration for half-maximal inhibition (IC50) in the data set on B. subtilis-GFP (Bacillus subtilis) and in the data set with E. coli-GFP (Escherichia coli) was more than 30 µM each time. Also, the IC50 at 72 h in “in vitro [3]”, in “in vitro [4]” and in “in vitro [5]” was more than 30 µM each time.
Turning to `CCCCCCCCn1nnc(-c2ccccc2)c1P(=O)(OCCCC)OCCCC` [Compound 25, Dibutyl (1-octyl-4-phenyl-1,2,3-triazol-5-yl)phosphonate], the concentration for half-maximal inhibition (IC50) in the data set with B. subtilis-GFP (Bacillus subtilis) and in the data set with E. coli-GFP (Escherichia coli) was more than 30 µM each time. In addition, the IC50 at 72 h (in the data set “in vitro [3]” (setting [10]); in the data set “in vitro [4]” (setting [11]); in [6]) was more than 30 µM in each case.
On to “Dibutyl (1-isooctyl-4-phenyl-1,2,3-triazol-5-yl)phosphonate [Compound 26]”, for which the IC50 in the data set on B. subtilis-GFP was 29.6 ± 1 µM; in the data set with E. coli-GFP it was more than 30 µM; in [7] it was more than 30 µM; in [8], more than 30 µM; in data set [2] (setting [9]), 26700 ± 1000 nM.
